One series concerns T. b. brucei. As to conditions: cited from earlier work.
For the next series, the system named is T. congolense. As to conditions: cited from earlier work.
The subject of another series is T. vivax. As to conditions: multiple daily doses; Dube et al.; cited from earlier work.
In another series the test system is T. b. brucei EATRO 110. The series can be described thus: Delayed administration of 9-DINO on the EATRO 110 model (Table 2). As to conditions: for # Cured/Total / % Cured: 3 days. Format: in vivo, Trypanosoma brucei brucei (in Swiss-Webster mice). The text has this: T. b. brucei EATRO 110 isolate was maintained as described (Bacchi, C. J., H. C. Nathan, S. H. Hutner, P. P. McCann and A. Sjoerdsma; Polyamine metabolism: a potential chemotherapeutic target in trypanosomes. Science 210: 332-334, 1980). It produces an acute, rapidly fatal parasitemia which is lethal to mice 3-5 days after inoculation. Two T. B. brucei strains, TREU 667 and LUMP 1001 developed by Jennings and coworkers (Jennings, F. W., D. D. Whitelaw and G. M. Urquhart; The relationship between duration of infection with Trypanosoma brucei in mice and the efficacy of chemotherapy. Parasitology 75: 143-153, 1977/Jennings, F. W. and G. D. Gray; Relapsed parasitemia following chemotherapy of chronic T. brucei infections in mice and its relation to cerebral trypanosomes; Contr. Microbiol. Immunol. 7 147-154, 1983) were used as CNS models. Both produce infections which are refractory to Berenil® (diminazene aceturate) and develop within 21 days after inoculation. They are not usually fatal until >40 days after inoculation. LUMP 1001 causes a more virulent CNS infection than TREU 667, and is regarded as more difficult to cure (Jennings, F. W. and G. D. Gray. Relapsed parasitemia following chemotherapy of chronic T. brucei infections in mice and its relation to cerebral trypanosomes. Contr. Microbiol. Immunol. 7 147-154, 1983).
Swiss-Webster (25-30 g) mice were used throughout. […] Animals were divided into groups of 5 before treatment. Cured animals survived >30 days beyond deaths of controls. All compounds were administered by i.p. injection.

A further series is described as follows: in vivo. As for the experimental part: Swiss-Webster (25-30 g) mice were used throughout. In the EATRO 110 model, groups of 100 mice were infected (10^5 trypanosomes/mouse) and the infection was allowed to develop 24 hours before commencing therapy. Animals were divided into groups of 5 before treatment. Cured animals survived >30 days beyond deaths of controls. All compounds were administered by i.p. injection.

The test system of series [1] is Trypanosoma brucei gambiense. The following applies: bone marrow tissue culture system; cited from earlier work.
For series [2], the system named is Trypanosoma brucei rhodesiense. As to conditions: bone marrow tissue culture system; cited from earlier work.
The subject of a further series is Pneumocystis Carinii. The following applies: tissue culture; cited from earlier work.
Series [3] has as its system bloodstream trypomastigotes. As to conditions: in culture; cited from earlier work.
A further series has as its system Leishmania spp. The following applies: previous studies; cited from earlier work.
Another series has as its system T. b. rhodesiense. The following applies: cited from earlier work.
The next series concerns VA-13 human cells. As to conditions: cited from earlier work.
Setting [4] is: multiple daily doses, Dube et al.
Where [5] appears, read: treatment begun 48 h post infection, 25 mg/kg i.p. daily.
Where [6] appears, read: treatment begun 48 h post infection, 50 mg/kg i.p. daily.
[7] abbreviates: treatment begun 48 h post infection, 100 mg/kg i.p. daily.
The mark [8] stands for this setting: treatment begun 72 h post infection, 25 mg/kg i.p. daily, only fully treated animals.
The mark [9] stands for this setting: treatment begun 72 h post infection, 50 mg/kg i.p. daily, only fully treated animals.
[10] abbreviates: treatment begun 72 h post infection, 100 mg/kg i.p. daily, only fully treated animals.

The text below walks through data of patent US4914086A, “Method for treating African human and veterinary trypanosomiases” (priority 1987, dated 1990).

`Nc1ncnc2c1ncn2[C@@H]1O[C@H](C[C@@H](N)CC[C@H](N)C(=O)O)[C@@H](O)[C@H]1O` [Sinefungin, 6,9-Diamino-1-(6-amino-9H-purin-9-yl)-1,5,6,7,8,9-hexadeoxy-beta-D-ribo-decofuranuronic acid]: in the series on T. b. brucei (3×5 mg/kg dose, 8 hour intervals), the “% curable” value was 100%. The cure in words result with T. b. brucei (setting [4]), with T. congolense (setting [4]) and in the series on T. vivax was “cured” each time. In the series with T. congolense (9 injections 2 h apart), the “total dose to which infection responded” value is recorded as 0.45 mg.

Consider `O=c1[nH]cnc2c([C@@H]3O[C@H](CO)[C@@H](O)[C@H]3O)c[nH]c12` [9-DINO, 7-beta-D-ribofuranosyl-4-oxo-3H, 5H-pyrrolo (3,2-d) pyrimidine], for which the efficacy in words entry in the series on T. b. brucei EATRO 110 (treatment at 48 h post infection, 25 to 100 mg/kg) is listed as “completely effective”. The “# Cured/Total” value in the series on T. b. brucei EATRO 110 (setting [5]) is given as 5/5; in the series with T. b. brucei EATRO 110 (setting [6]) it was 5/5; in the series on T. b. brucei EATRO 110 (setting [7]), 5/5; with T. b. brucei EATRO 110 (setting [8]) it was 6/10; in the series on T. b. brucei EATRO 110 (setting [9]) it was 6/10; in the series with T. b. brucei EATRO 110 (setting [10]) it was 6/9. Moreover, the “% Cured” value is recorded as 100% in the series with T. b. brucei EATRO 110 (setting [5]); 100% in the series on T. b. brucei EATRO 110 (setting [6]); 100% with T. b. brucei EATRO 110 (setting [7]); 60% with T. b. brucei EATRO 110 (setting [8]); 60% in the series with T. b. brucei EATRO 110 (setting [9]); 67% with T. b. brucei EATRO 110 (setting [10]). For the same compound, the activity in words entry in the series with T. b. brucei EATRO 110 (treatment delayed 48 or 72 h post infection) is “active”; in [1] it was “active at very low concentrations”; in [2] it was “active at very low concentrations”; in the series on Pneumocystis Carinii it was “active”; with Leishmania spp it was “more active than allopurinol, thipurinol, and their respective nucleosides”. The “dose at which toxicity appeared” value in “in vivo” (mouse, in vivo) was 400 mg/kg. For the same compound, the toxicity in words entry in “in vivo” (prolonged (i.e. 1 week) dose regimens) is listed as “no evidence of toxicity”. The metabolism in words result was “converted to toxic adenosine nucleotide analogues” in series [3] and “metabolized to 9-deaza-ATP” in the series on T. b. rhodesiense. Also, the “metabolism to adenine nucleotide analogs in words” value with VA-13 human cells is “not metabolized to adenine nucleotide analogs”.
